Reference: patent US9981972B2, “N-hydroxy bicyclic hydantoin carbamates as tools for identification of serine hydrolase targets” (ABIDE THERAPEUTICS, INC., priority 2014, dated 2018)
“Also recorded” adds a separate entry of the source.

Legend:
[1] = tested on: serine hydrolases in PC3 cells; test: ABPP-SILAC, PC3 cells treated in situ, other SH targets; assay type: cell-based, human; conditions: 4 h in situ
Protocol: (§1) In situ inhibitor treatments of human cell lines were performed as described previously (Hsu et al., J Med Chem 56, 8270-8279, 2012). Briefly, PC3 or transfected HEK293T cells were grown to confluency in serum-containing media (RPMI or DMEM, respectively). The culture media was then removed and replaced with fresh media containing DMSO or inhibitor at the desired concentration and incubated for 4 hours in a tissue culture incubator (37° C., 5% CO2). Cells were then washed with PBS, harvested, washed with PBS once more, and lysed with a probe sonicator.
(§2) The activity and selectivity of dual ABHD3/4 and ABHD4-preferring inhibitors in PC3 cells by ABPP-SILAC was assessed. Isotopically heavy and light PC3 cells were treated in situ with inhibitor (Compound 37 (1 μM) or Compound 38 (0.5 μM)) or DMSO for 4 h and then lysed and processed for ABPP-SILAC analysis.
Isotopically heavy- and light-labeled PC3 cells were treated with Compound 37 (1 μM) or DMSO for 4 h, respectively, lysed, and then treated Compound 39 (5 μM, 1 h). […] Among the handful of additional SH targets of Compound 37 were ABHD6 and PLA2G7, which were expected based on our ABPP-SILAC studies with FP-biotin (see FIG. 9), and protein-palmitoyl thioesterase 1 (PPT1), which was inhibited by more than 90%. […] Accordingly, PPT1 was not detected in our previous ABPP-SILAC studies with FP-biotin (see FIG. 9). The selective enrichment of PPT1 by Compound 39 was confirmed by performing a probe-versus-probe ABPP-SILAC study, where heavy and light PC3 proteomes were treated with FP-biotin (2.5 μM, 1 h) and Compound 39 (5 μM, 1 h), respectively. PPT1, along with two additional SHs LIPA and DDHD2, were preferentially enriched by Compound 39 over FP-biotin, while most of the other SHs were more strongly enriched by FP-biotin (see FIG. 13). A handful of SHs corresponding mostly to enzymes that were identified in our ABPP-SILAC studies as targets of Compound 37 (see FIGS. 9 and 12), were equivalently enriched by Compound 39 and FP-biotin (see FIG. 13).
(§3) To evaluate the broader selectivity of Compound 26 and Compound 34 across the SH class, heavy and light isotopically-labeled PC3 cells were treated with inhibitor [Compound 34 (1 μM); or Compound 26 (1 or 0.1 μM); 4 h) and DMSO, respectively, followed by ABPP-SILAC analysis with either the FP-biotin probe or the Compound 39 probe. […] Conversely, Compound 34 inhibited >90% of ABHD4 activity, as measured with either the FP-biotin probe or the Compound 39 probe, and cross-reacted with four additional targets—ABHD6, PAFAH2, PLA2G7, and PLA2G15.

ABHD4 [2] = target: T1, ABHD4 (Homo sapiens, UniProt Q8TB40); test: ABPP-SILAC, PC3 cells treated in situ; assay type: cell-based; parameters: endogenous in cells; host or cells: PC3; conditions: 4 h in situ; for inhibition of ABHD4 in PC3 cells: FP-biotin
T1 sequence (Q8TB40 1-342): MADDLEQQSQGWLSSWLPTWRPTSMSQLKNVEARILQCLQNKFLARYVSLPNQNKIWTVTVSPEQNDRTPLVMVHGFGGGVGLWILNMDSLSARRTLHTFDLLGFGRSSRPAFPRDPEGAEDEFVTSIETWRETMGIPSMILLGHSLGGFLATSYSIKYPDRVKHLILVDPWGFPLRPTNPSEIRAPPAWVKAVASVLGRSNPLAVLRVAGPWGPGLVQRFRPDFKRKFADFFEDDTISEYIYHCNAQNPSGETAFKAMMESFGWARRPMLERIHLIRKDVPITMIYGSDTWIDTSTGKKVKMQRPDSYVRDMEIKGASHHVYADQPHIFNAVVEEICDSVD
Protocol: as §1, §2, §3

ABHD4 [3] = target: T1, ABHD4; test: Gel-based competitive ABPP, recombinant enzyme in transfected HEK293T cell lysates; assay type: biochemical; parameters: myc-his; expressed in transfected cells; host or cells: HEK293T, transient transfection, pcDNA3.1/myc-his; lysate used in vitro; conditions: recombinant
Method in brief: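 Human ABHD4 was expressed by transient transfection in HEK293T cells, and lysates were combined with those expressing ABHD3. Inhibition was monitored by gel-based competitive activity-based protein profiling, with compound applied either in situ to cells or in vitro to lysates.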

ABHD4 [4] = target: T1, ABHD4; test: NAPE substrate hydrolysis assay, ABHD4-transfected HEK293T cell lysates; assay type: biochemical; conditions: lysates from ABHD4-transfected HEK293T cells
Protocol: NAPE hydrolysis was measured by following the release of oleic acid from the NAPE substrate (1,2-dioleoyl-sn-glycero-3-phospho (N-arachidonoyl) ethanolamine).

[5] = transfected HEK293T lysates, read-out: hABHD4 in vitro potency (IC50)

SMILES: COc1ccc(N2CCN(C(=O)ON3C(=O)C4CN(Cc5ccc(Oc6ccccc6)cc5)CCN4C3=O)CC2)cc1 (centres unmarked) [Compound 37, 1,3-dioxo-7-(4-phenoxybenzyl)hexahydroimidazo[1,5-a]pyrazin-2(3H)-yl 4-(4-methoxyphenyl)piperazine-1-carboxylate]
- SHs inhibited in PC3 cells ([1]; 1 μM, Compound 39 probe): ABHD4; also recorded: ABHD6; also recorded: PLA2G7
- inhibition of ABHD4 in PC3 cells (ABHD4 [2]; 1 μM): completely inhibited
- preference ABHD4 over ABHD3 (ABHD4 [3]; combined HEK293T lysates, gel-based ABPP): preferentially inhibited ABHD4 over ABHD3
- IC50 (ABHD4 [3]; [5]): 0.1 µM

SMILES: O=C(ON1C(=O)C2CN(Cc3ccc(Oc4ccccc4)cc3)CCN2C1=O)N1CCOCC1 (centres unmarked) [Compound 34, 1,3-dioxo-7-(4-phenoxybenzyl)hexahydroimidazo[1,5-a]pyrazin-2(3H)-yl morpholine-4-carboxylate]
- additional cross-reacting targets ([1]; 1 μM, PC3): ABHD6; also recorded: PAFAH2; also recorded: PLA2G7; also recorded: PLA2G15
- IC50 (ABHD4 [4]): 0.5 µM
- inhibition at 1 µM (ABHD4 [2]; PC-3, 1 μM, FP-biotin or Compound 39 probe): > 90%
- IC50 (ABHD4 [3]; [5]): ~1 µM

SMILES: COc1ccc(N2CCN(C(=O)ON3C(=O)C4CN(CC5CCN(Cc6ccccc6)CC5)CCN4C3=O)CC2)cc1 (centres unmarked) [Compound 26, 7-((1-benzylpiperidin-4-yl)methyl)-1,3-dioxohexahydroimidazo[1,5-a]pyrazin-2(3H)-yl 4-(4-methoxyphenyl)piperazine-1-carboxylate]
- cross-reacting SHs of >40 quantified ([1]; 1 or 0.1 μM, PC3): ABHD6 and CPVL
- effect on NAPE hydrolysis activity of ABHD4 (ABHD4 [4]): neither Compound 26 nor Compound 1 altered

SMILES: O=C(ON1C(=O)C2CN(Cc3ccc(Oc4ccccc4)cc3)CCN2C1=O)N1CCC(c2ccccc2)CC1 (centres unmarked) [Compound 38, 1,3-dioxo-7-(4-phenoxybenzyl)hexahydroimidazo[1,5-a]pyrazin-2(3H)-yl 4-phenylpiperidine-1-carboxylate]
- additional targets among 44 serine hydrolases ([1]; 0.5 μM, PC3, FP-biotin): LIPE and PLA2G7 and ABHD6 and CES2
- inhibition of ABHD4 in PC3 cells (ABHD4 [2]; 0.5 μM): inhibit both ABHD3 and ABHD4
- IC50 (ABHD4 [3]; combined HEK293T lysates, gel-based ABPP, read-out: ABHD4 IC50): 0.03 µM

SMILES: O=C(ON1C(=O)C2CN(C(=O)N3CCOCC3)CCN2C1=O)N1CCC(CCc2ccc(Cl)cc2)CC1 (centres unmarked) [Compound 1, 7-(morpholine-4-carbonyl)-1,3-dioxohexahydroimidazo[1,5-a]pyrazin-2(3H)-yl 4-(4-chloro-phenethyl)piperidine-1-carboxylate]
- effect on NAPE hydrolysis activity of ABHD4 (ABHD4 [4]): neither Compound 26 nor Compound 1 altered
